Like-named read-outs stand apart in the source and are kept apart here. Values belong to the compound of their own block, whether it stands above or below them.
How the values were obtained:
[1] = system: MCF-7 human breast cancer cells; assay: Cell Titer-Glo growth inhibition, MCF-7; format: cell-based
[2] = system: MDA-MB-134-VI human breast cancer cells; assay: Cell Titer-Glo growth inhibition, MDA-MB-134VI; format: cell-based
[3] = system: HCC70 human breast cancer cells; assay: Cell Titer-Glo growth inhibition, HCC70; format: cell-based
[4] = system: BT-549 human breast cancer cells; assay: Cell Titer-Glo growth inhibition, BT-549; format: cell-based
[5] = system: HCC1806 human breast cancer cells; assay: Cell Titer-Glo growth inhibition, HCC1806; format: cell-based
[6] = system: panel of 12 human breast cancer cell lines; assay: Cell Titer-Glo growth inhibition, statements for the whole panel
Experimental: MCF-7 human breast cancer cells were cultured in RPMI 1640 medium supplemented with 10% fetal bovine serum (FBS), 2 mM glutamine, 10 mM 4-(2-hydroxyethyl)-1-piperazineethanesulfonic acid (HEPES), 0.075% sodium bicarbonate, 100 units/mL sodium penicillin G, 100 μg/mL streptomycin sulfate and 25 μg/mL gentamicin. T-47D human breast cancer cells were cultured in RPMI 1640 medium supplemented with 10% FBS, 4.5 g/L glucose, 2 mM glutamine, 10 mM HEPES, 0.2 units/mL Insulin, 1 mM sodium pyruvate, 100 units/mL sodium penicillin G, 100 μg/mL streptomycin sulfate and 25 μg/mL gentamicin. ZR-75-1 human breast cancer cells were cultured in RPMI 1640 medium supplemented with 10% FBS, 4.5 g/L glucose, 2 mM glutamine, 10 mM HEPES, 1 mM sodium pyruvate, 100 units/mL sodium penicillin G, 100 μg/mL streptomycin sulfate and 25 μg/mL gentamicin. MDA-MB-134-VI human breast cancer cells were cultured in Leibovitz's L-15 medium supplemented with 20% FBS, 2 mM glutamine, 100 units/mL sodium penicillin G, 100 μg/mL streptomycin sulfate and 25 μg/mL gentamicin. MDA-MB-175-VII human breast cancer cells were cultured in Leibovitz's L-15 medium supplemented with 10% FBS, 2 mM glutamine, 10 mM HEPES, 100 units/mL sodium penicillin G, 100 μg/mL streptomycin sulfate and 25 μg/mL gentamicin. […]

[7] = system: T-47D human breast cancer cells; assay: Cell Titer-Glo growth inhibition, T-47D; format: cell-based; conditions: T47D
[8] = system: Hs578t human breast cancer cells; assay: Cell Titer-Glo growth inhibition, Hs578t; format: cell-based; conditions: Hs-578T
[9] = system: MDA-MB-415 human mammary gland/breast cancer cells; assay: Cell Titer-Glo growth inhibition, MDA-MB-415; format: cell-based
[10] = system: ZR-75-1 human breast cancer cells; assay: Cell Titer-Glo growth inhibition, ZR-75-1; format: cell-based
[11] = system: MDA-MB-175-VII human breast cancer cells; assay: Cell Titer-Glo growth inhibition, MDA-MB-175VII; format: cell-based
[12] = system: MDA-MB-231 human breast cancer cells; assay: Cell Titer-Glo growth inhibition, MDA-MB-231; format: cell-based
[13] = system: MDA-MB-436 human adenocarcinoma derived cancer cells; assay: Cell Titer-Glo growth inhibition, MDA-MB-436; format: cell-based
[14] = system: OD-BRE-0745, an ER+, PR+, Her2− luminal B infiltrating ductal adenocarcinoma (patient-derived breast tumor); assay: Antitumor activity in OD-BRE-0745 PDX model; format: in vivo, Swiss nude mice; conditions: 150 mg/kg palbociclib, contribution of eribulin masked (FIGS. 10 and 12)
Experimental: A statistical test (analysis of variance) was performed to test for homogeneity between groups.

[15] = 72 h, read-out: Mean IC50, single agent Eribulin

Structure (SMILES): C=C1C[C@@H]2CC[C@@]34C[C@H]5O[C@H]6[C@@H](O3)[C@H]3O[C@H](CC[C@@H]3O[C@H]6[C@H]5O4)CC(=O)C[C@@H]3[C@@H](OC)[C@@H](C[C@H](O)CN)O[C@H]3C[C@H]3O[C@@H](CC[C@@H]1O2)C[C@@H](C)C3=C [Eribulin]
IC50 ([1]; MCF7, 72 h, read-out: Mean IC50, single agent Eribulin): 0.253 nM
IC50 ([1]; MCF7, read-out: Mean IC50 of eribulin dose response with constant 1 μM Palbociclib): 0.598 nM
IC50 ([2]; MDA-MB-134-VI, 72 h, read-out: Mean IC50, single agent Eribulin): 0.491 nM
IC50 ([2]; MDA-MB-134-VI, read-out: Mean IC50 of eribulin dose response with constant 1 μM Palbociclib): 21 nM
IC50 ([3]; HCC70, 72 h, read-out: Mean IC50, single agent Eribulin): 0.454 nM
IC50 ([3]; HCC70, read-out: Mean IC50 of eribulin dose response with constant 1 μM Palbociclib): 0.377 nM
IC50 ([3]; HCC70, read-out: Mean IC50 of eribulin dose response with constant 10 μM Palbociclib): 21.5 nM
IC50 ([4]; BT-549, 72 h, read-out: Mean IC50, single agent Eribulin): 0.289 nM
IC50 ([4]; BT-549, read-out: Mean IC50 of eribulin dose response with constant 1 μM Palbociclib): 0.374 nM
IC50 ([4]; BT-549, read-out: Mean IC50 of eribulin dose response with constant 10 μM Palbociclib): 0.849 nM
IC50 ([5]; HCC1806, 72 h, read-out: Mean IC50, single agent Eribulin): 0.142 nM
IC50 ([5]; HCC1806, read-out: Mean IC50 of eribulin dose response with constant 1 μM Palbociclib): 0.273 nM
IC50 ([6]; Homo sapiens, read-out: IC50, single agent, overall statement): < 1 nM
Potentiation of eribulin growth inhibition by palbociclib ([6]; all cell lines, constant dose of 10 μM or 1 μM of palbociclib): No potentiation effect
IC50 [7, 15]: 0.188 nM
IC50 [8, 15]: 0.354 nM
IC50 ([8]; read-out: Mean IC50 of eribulin dose response with constant 1 μM Palbociclib): 14.6 nM
IC50 ([8]; read-out: Mean IC50 of eribulin dose response with constant 10 μM Palbociclib): 0.797 nM
IC50 ([9]; MDA-MB-415, 72 h, read-out: Mean IC50, single agent Eribulin): 0.403 nM
IC50 ([10]; ZR-75-1, 72 h, read-out: Mean IC50, single agent Eribulin): > 1000 nM
IC50 ([11]; Homo sapiens, MDA-MB-175-VII, 72 h, 72 h drug exposure, read-out: Mean IC50, single agent Eribulin): 0.12 nM
IC50 ([11]; Homo sapiens, MDA-MB-175-VII, eribulin 3.8 pM to 1 μM, constant 10 μM palbociclib, read-out: Mean IC50 of eribulin dose response with constant 10 μM Palbociclib): 92.9 nM
IC50 ([11]; eribulin 3.8 pM to 1 μM, constant 10 μM palbociclib, listed as Eribufin, read-out: Mean IC50 of eribulin dose response with constant 10 μM Palbociclib): 92.2 nM
IC50 ([12]; MDA-MB-231, 72 h, read-out: Mean IC50, single agent Eribulin): 0.149 nM
IC50 ([12]; MDA-MB-231, read-out: Mean IC50 of eribulin dose response with constant 1 μM Palbociclib): 1.45 nM
IC50 ([13]; MDA-MB-436, 72 h, read-out: Mean IC50, single agent Eribulin): 0.86 nM
IC50 ([13]; MDA-MB-436, read-out: Mean IC50 of eribulin dose response with constant 1 μM Palbociclib): 2.02 nM
IC50 ([13]; MDA-MB-436, read-out: Mean IC50 of eribulin dose response with constant 10 μM Palbociclib): 6.25 nM

IC50 ([1]; MCF7, MCF-7, 72 h drug exposure, read-out: Mean IC50, single agent Palbociclib): > 10000 nM
IC50 ([2]; MDA-MB-134VI, 72 h drug exposure, read-out: Mean IC50, single agent Palbociclib): 2440 nM
IC50 ([4]; BT-549, 72 h drug exposure, read-out: Mean IC50, single agent Palbociclib): > 10000 nM
IC50 ([5]; HCC1806, 72 h drug exposure, read-out: Mean IC50, single agent Palbociclib): > 10000 nM
IC50 ([7]; T-47D, 72 h drug exposure, read-out: Mean IC50, single agent Palbociclib): > 10000 nM
IC50 ([8]; Hs578t, 72 h drug exposure, read-out: Mean IC50, single agent Palbociclib): > 10000 nM
IC50 ([9]; MDA-MB-415, 72 h drug exposure, read-out: Mean IC50, single agent Palbociclib): 1630 nM
IC50 ([10]; ZR-75-1, 72 h drug exposure, read-out: Mean IC50, single agent Palbociclib): > 10000 nM
IC50 ([12]; MDA-MB-231, 72 h drug exposure, read-out: Mean IC50, single agent Palbociclib): 392 nM
IC50 ([13]; MDA-MB-436, 72 h drug exposure, read-out: Mean IC50, single agent Palbociclib): 2990 nM
Structure (SMILES): CC(=O)c1c(C)c2cnc(Nc3ccc(N4CCNCC4)cn3)nc2n(C2CCCC2)c1=O [Palbociclib, 6-acetyl-8-cyclopentyl-5-methyl-2-[(5-piperazin-1-ylpyridin-2-yl)amino]pyrido[2,3-d]pyrimidin-7-one]
IC50 ([3]; HCC70, 72 h drug exposure, read-out: Mean IC50, single agent Palbociclib): > 10000 nM
Tumor response at the higher amount of palbociclib [14]: overwhelmed the response

— US20200129473A1, “USE OF ERIBULIN AND CYCLIN DEPENDENT KINASE INHIBITORS IN THE TREATMENT OF CANCER” (EISAI R&D MANAGEMENT CO., LTD., priority 2017, published 2020)
